Measured values published in publication PMC4965013, “Open Source Drug Discovery with the Malaria Box Compound Collection for Neglected Diseases and Beyond” (PLoS Pathogens, 2016).
Read-outs that look alike come from different tables or passages of the source.

Legend:
[1] = tested on: P. falciparum 3D7, HB3, Dd2, W2, K1, FCR3; test: Asexual EC50 image assay, six strains, Ayong; format: cell-based; conditions: Plasmodium falciparum
[2] = tested on: P. berghei ookinetes; test: P. berghei Ookinete Development Assay (Pb ODA); format: cell-based; conditions: Plasmodium berghei
Source text: Columns BX- CA, CD-DF: Delves, Ruecker, & Sinden group (Data and methods published in ref [82] except Column CE which is new data) The data represent our primary screening data in the P. falciparum Dual Gamete formation assay (Pf DGFA). They show the functional viability of mature Stage V male and female gametocytes as reported by their ability to undergo gamete formation as reported in the reference. Column CD represents primary screening data in the P. berghei Ookinete Development Assay (Pb ODA) at 1 µM as reported in the reference. Column CE represents a parallel screen in the Pb ODA at 10 µM that has not been published.

[3] = tested on: B. bigemina (Argentine strain); test: B. bigemina fluorescence-based growth assay; format: cell-based; conditions: Babesia bigemina
[4] = tested on: T. equi (USDA strain); test: T. equi fluorescence-based growth assay; format: cell-based; conditions: Theileria equi
[5] = tested on: S. mansoni adult worms; test: S. mansoni adult worms LSHTM Bickle; format: cell-based, Schistosoma mansoni; conditions: 15 μM
Method: Columns DI-DJ, DL: Bickle group. (columns DI and DL data presented first in this paper, column DJ partially published in ref [95].). […] Male CD1 mice (aged 5–6 weeks) were bred on site using SPF conditions with access of food and water ab libitum. Worms were obtained by portal perfusion of CD1 mice (Charles River, UK) 6 weeks post-infection and 3 worm pairs added to the wells of 48 well plates (Nunc, UK) in 1 ml complete DMEM medium supplemented with 10% fetal calf serum (Gibco, UK), 2 mM L-glutamine, 100 U/ml penicillin, 100 µg/ml streptomycin (cDMEM). A primary adult worm screen was performed in which 400 MMV compounds were tested at 15 µM in 0.15% DMSO. Negative controls contained worms cultured in cDMEM alone and in cDMEM with 0.15% DMSO. Positive control wells contained worms cultured in Praziquantel (Sigma-Aldrich, UK) at 10 µM. Cultures were incubated at 37 °C and 5% CO2. Effects were assessed on day 5 of culture using an inverted microscope (Leitz Diavert Wetzlar, Germany). Any compounds producing complete immobility or ≥ 70% worm motility inhibition plus severe morphological damage were considered hits in the primary screen. […] IC50 for the compounds was calculated using Microsoft XLfit version 5.1.0.0 (2006-2008 ID Business Solutions Ltd). In vitro screening of S. mansoni schistosomula run at LSHTM (London): Schistosomula were prepared as previously reported with the modification of using a 45% and 70% Percoll gradient and the cercarial heads recovered from the 70% layer. All centrifugation steps were done at 350 xg. An appropriate volume of drug Stock was pre-added to wells in 96-well microtiter culture plates (Nunc, UK) containing 100 µl complete M169 (cM169). The wells were then topped up with another 100 µl of cM169 containing 100 schistosomula to give final concentrations of 15 µM of compound per well. Negative controls contained larvae cultured in cM169 alone and in cM169 with 0.5% DMSO. Positive control wells contained schistosomula cultured in Praziquantel (Sigma-Aldrich, UK) at 10 µM. Cultures were incubated at 37 °C and 5% CO2. Effects were assessed on day 3 of culture using an inverted microscope (Leitz Diavert Wetzlar, Germany). Any compounds producing complete immobility or ≥ 70% motility inhibition plus severe morphological damage were considered hits in the larval screen.

[6] = tested on: A. ceylanicum L3 larvae; test: A. ceylanicum L3 larvae J. Keiser; format: cell-based, Ancylostoma ceylanicum; conditions: 200µM
[7] = tested on: Mycobacterium tuberculosis mc26220 replicating; test: microbe, parasite or virus in culture; format: cell-based
[8] = tested on: Mycobacterium marinum; test: M. marinum antibiotic assay; format: cell-based; conditions: 10µM
Method: Columns FA-FC: Soldati Group (data presented first in this paper). M. marinum, D. discoideum, and Acathamoeba castellani assays. Each compound of the Malaria Box has been assayed at 10 µM in all three assays. First, the antibiotic activity was assayed directly against Mycobacterium marinum in its culture medium. Second, the toxicity and growth inhibitory effect of the compounds was assayed against the amoeba Dictyostelium discoideum in its culture medium. Finally, the “in cellulo” anti-infective activity of each compound was tested using the intracellular infection system Acanthamoeba castellanii-M. marinum. Values have been normalized using the DMSO carrier. For each assay, values have been normalized to 1.00 using the DMSO carrier, which has no detectable effect on D. discoideum nor M. marinum growth, while rifabutin was used as positive control for the antibiotic assay and the infection assay, as it abolishes M. marinum growth (normalized value under 0.10) in broth at 10 µM and intracellularly at 30 µM [150].

[9] = tested on: P. falciparum 3D7A stage V gametocytes, female gamete formation; parameters: method as in ref [73] (a number printed in a supplementary file, which may have a reference list of its own: not looked up in the article's list); conditions: 5µM; ref [73]; cited from earlier work
[10] = tested on: P. falciparum Stage V male and female gametocytes; parameters: method as in ref [74] (a number printed in a supplementary file, which may have a reference list of its own: not looked up in the article's list); conditions: 1µM; ref [74]; cited from earlier work
[11] = tested on: P. berghei ookinetes; parameters: method as in ref [74] (a number printed in a supplementary file, which may have a reference list of its own: not looked up in the article's list); conditions: 1µM; ref [74]; cited from earlier work
[12] = tested on: Trypanosoma brucei rhodesiense STIB 900; conditions: ref [84]; cited from earlier work
[13] = tested on: Leishmania infantum MHOM/MA/BE/67; conditions: ref [84]; read-out: Leishmania infantum EC50 intracellular amastigotes in primary macrophages; cited from earlier work
[14] = tested on: MRC5SV2 human fibroblasts; conditions: read-out: MRC-5-Human-Fibroblasts EC50 (32000 >32µM); ref [84]; cited from earlier work
[15] = tested on: wild type yeast cells; test: WT yeast (PMT assay control); conditions: Saccharomyces cerevisiae
[16] = tested on: Chromera velia; test: Chromera velia flagellation motility assay; conditions: 1µM
[17] = tested on: P. falciparum HB3; test: Stage-specificity / mitochondrial integrity image assay Ayong; format: cell-based; conditions: 10µM
[18] = read-out: P. falciparum Dd2 asexual blood stage EC50 (Image) Ayong
[19] = read-out: % Inhibition in WT yeast (PMT assay control), no added choline
[20] = read-out: % Inhibition in WT yeast (PMT assay control), with added choline
[21] = read-out: P. falciparum 3D7 asexual blood stage EC50 (Image) Ayong
[22] = read-out: P. falciparum FCR3 asexual blood stage EC50 (Image) Ayong
[23] = read-out: P. falciparum HB3 asexual blood stage EC50 (Image) Ayong
[24] = read-out: P. falciparum K1 asexual blood stage EC50 (Image) Ayong
[25] = read-out: P. falciparum W2 asexual blood stage EC50 (Image) Ayong

Structure (SMILES) | EC50 [1, 18] | inhibition at 10 µM [2] | EC50 [3] | EC50 [4] | Schistosoma mansoni adult worm primary assay % Motility Reduction (Hit ≥ 70%) [5] | Anyclostoma ceylanicum L3 larvae effect (%) [6] | inhibition at 25 µM [7] | 3D7A female gamete formation acridine orange % inhibition [9] | Male gametocyte Stage V % inhibition of gamete formation [10] | female gametocyte Stage V % inhibition of gamete formation [10] | P. berghei ookinete assay % inhibition [11] | EC50 [12] | EC50 [13] | EC50 [14] | inhibition at 100 µM [15, 19] | inhibition at 100 µM [15, 20] | Chromera velia 24 hr Flagellation (control standardized to ++; 0 = no flagella) [16] | Chromera velia 72 hr Flagellation (control standardized to ++; 0 = no flagella) [16] | EC50 [1, 21] | EC50 [1, 23] | further results
CCOC(=O)c1cnc2ccc(OC)cc2c1NCc1ccccc1 [MMV665813] | 3.32 µM | 33.4% | 1 µM | 14.1 µM | 0% | 0% | 40% | -11% | -13% | -41% | -6.8% | 4.95 µM | 10.1 µM | > 32 µM | 0% | 0% | +++ | ++ |  |  | Mycobacterium marinum relative growth DMSO=1 Antibiotic Assay [8]: 0.86
CCN(CC)c1cc(C)c2cc(NC(=O)c3cccc(OC)c3)ccc2n1 [MMV000498] | 2.45 µM | -0.6% | 8.99 µM | 0.46 µM | 0% | 0% | 19% | 3% | -1.33% | -22% | -7.5% | 0.679 µM | 16.2 µM | 15.3 µM | 0% | 0% | ++ | +++ | 1.8 µM | 2.8 µM | EC50 [1, 22]: 4.56 µM; EC50 [1, 24]: 3.53 µM; EC50 [1, 25]: 2.74 µM; P. falciparum HB3 early ring (ER) stage activity [17]: ✖; P. falciparum HB3 late ring (LR) stage activity [17]: ✖; P. falciparum HB3 trophozoite (T) stage activity [17]: ✖; Mycobacterium marinum relative growth DMSO=1 Antibiotic Assay [8]: 0.98
CCN1CCN(c2cc(C)c3cc(NC(=O)c4ccc(OC)c(OC)c4)ccc3n2)CC1 [MMV019074] | 1.27 µM | 43% | 7.92 µM | 0.33 µM | 25% | 0% | 15% | -18% | -3.72% | -9% | -2.9% | 3.22 µM | 6.35 µM | 5.46 µM | 0% | 0% | +++ | +++ | 0.904 µM | 1.5 µM | EC50 [1, 22]: 2.61 µM; EC50 [1, 24]: 1.32 µM; EC50 [1, 25]: 2.95 µM; P. falciparum HB3 early ring (ER) stage activity [17]: ✖; P. falciparum HB3 late ring (LR) stage activity [17]: ✖
COc1ccc(C(=O)Nc2ccc3nc(N4CCCCC4)cc(C)c3c2)cc1OC [MMV019758] | 3.29 µM | 35.4% | 0.46 µM | 6.99 µM | 50% | 0% | 21% |  | 10% | -48% | -18.9% | 10.9 µM | 16.2 µM | 16.4 µM | 0% | 0% | + | ++ | 1.6 µM | 3.44 µM | EC50 [1, 25]: 4.47 µM; P. falciparum HB3 late ring (LR) stage activity [17]: ✖; Mycobacterium marinum relative growth DMSO=1 Antibiotic Assay [8]: 1.01
COc1cc2cc(C(=O)Nc3ccccc3)c(N)nc2cc1OC [MMV006767] | 0.357 µM | 39.4% | 21.1 µM | 3.04 µM | 0% | 0% | 17% | -3% | 22% | -10% | 8.6% |  |  | > 32 µM | 0% | 0% | +++ | ++ | 0.592 µM | 0.812 µM | EC50 [1, 22]: 0.931 µM; EC50 [1, 24]: 1.49 µM; EC50 [1, 25]: 0.797 µM; P. falciparum HB3 late ring (LR) stage activity [17]: T,S; P. falciparum HB3 trophozoite (T) stage activity [17]: ✖
